Experiments:
human PBMCs = assay: anti-CD3 mediated PBMCs activation in QGP1-conditioned media, IFN-γ measurement by HTRF; format: cell-based; details: anti-CD3 0.5 μg/mL; for effect on C-Media induced decrease in anti-CD3 mediated PBMCs activation (IFN-γ): PBMCs of one healthy donor, 72 hours, conditioned media prepared with Telotristat 1 μM or PEA 300 μM
Method: Culture supernatant was then collected and applied on peripheral blood mononuclear cells (PBMCs) cultivated under anti-CD3-based activation for 3-days.
(§1) The QGP-1 cell line was cultured in RPMI-1640 medium, supplemented with 10% (v/v) FCS and penicillin-streptomycin in a humidified incubator at 5% CO2 and 37° C. In order to prepare the conditioned media, cells were cultured in 6-well plates for 48 hours in the presence and absence of Telotristat (1 μM), a TPH1 inhibitor, and in the presence and absence of Phenethylamine (PEA; 300 μM), a TPH1 inducer (Zhai et al., 2023). QGP1-conditioned media (C-Media) were used to culture human PBMCs (Peripheral Blood Mononuclear Cells) originating from one healthy donor for a 72-hour period under anti-CD3 activation (0.5 μg/mL). As control, fresh cell culture media (Non-Conditioned Media (NC-Media) was used.
At the end of PBMCs treatment period as described above, cell culture supernatants were collected and subjected to IFN-γ measurement by mean of HTRF (Homogeneous Time Resolved Technology, Perkin Elmer) which serves as a surrogate of immune cell activation (FIG. 12). HTRF is a standard technique well-known in the art and therefore perfectly within the routine of the skilled person.

TPH1 = biological target: T1, TPH1 (Homo sapiens, UniProt P17752); assay: Tryptophan metabolites (Trp, 5HTP, 5HT and ratios) in QGP1-conditioned media as surrogate of TPH1 activity; format: cell-based; details: QGP1 cells cultured 48 hours; for effect on C-Media decrease in Trp level and concomitant increase of 5HTP, 5HT, 5HTP/Trp and 5HT/Trp ratios: Telotristat 1 μM, PEA 300 μM, versus C-Media alone
T1 construct: QGP1 neuroendocrine tumor cell line characterized by a high TPH1 expression and activity; endogenous in cells; host or cells: QGP-1 neuroendocrine tumor cell line
T1 sequence (P17752 1-444): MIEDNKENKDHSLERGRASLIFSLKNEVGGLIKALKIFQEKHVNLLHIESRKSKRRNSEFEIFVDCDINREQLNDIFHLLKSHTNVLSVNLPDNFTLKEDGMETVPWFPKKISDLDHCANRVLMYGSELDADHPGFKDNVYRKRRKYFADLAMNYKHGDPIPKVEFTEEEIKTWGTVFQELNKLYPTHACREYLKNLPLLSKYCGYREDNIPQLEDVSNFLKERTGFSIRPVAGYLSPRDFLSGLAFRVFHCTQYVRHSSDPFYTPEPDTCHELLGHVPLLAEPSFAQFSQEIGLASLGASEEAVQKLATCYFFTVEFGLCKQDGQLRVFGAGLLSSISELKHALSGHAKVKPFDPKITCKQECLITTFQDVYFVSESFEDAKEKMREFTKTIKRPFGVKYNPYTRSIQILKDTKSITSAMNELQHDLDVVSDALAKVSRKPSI
Method: The impact of TPH1^High conditioned culture media (C-Media) on immune cell activation was evaluated. QGP1 neuroendocrine tumor cell line characterized by a high TPH1 expression and activity was cultured over a 48-hour period in the presence and absence of Telotristat (TPH1 inhibitor) or Phenethylamine (PEA) alone and in the presence of Telotristat.
The media characteristics were as follows: • i) NC-Media • ii) C-Media • iii) C-Media+Telotristat (TPH1 inhibitor) • iv) C-Media+Phenethylamine (PEA) • v) C-Media+Telotristat (TPH1 inhibitor)+Phenethylamine (PEA)
as §1
Each analytes-Tryptophan (Trp), 5-hydroxyTryptopan (5HTP) and Serotonin (5HT)-were measured individually and then used to calculate ratio, i.e. 5HTP/Trp and 5HT/Trp as representative surrogate of TPH1 activity.
Tryptophan was quantified using an immunoassay (#BA-E-2700, ImmuSmol, Bordeaux, FRANCE). Briefly, in order to remove proteins, 20 μL of sample were precipitated, vortexed and then centrifuged for 15 minutes (3,000 g, at 4° C.). Twenty five microliters of supernatant were then used for derivatization for a 2 hour period at room temperature. Once the derivatization was achieved, 25 μL of the solution was applied on a 96-microtiters prior addition of 50 μL of anti-Tryptophan antiserum. […]
5-HdroxyTryptophan was quantified using an immunoassay. […]
Serotonin was quantified using an immunoassay (#BA-E-5900R, ImmuSmol, Bordeaux, FRANCE). […]

Compound	effect on the more limited immune cell activation associated with PEA-induced TPH1 activation (IFN-γ) (human PBMCs; PBMCs 72 hours, conditioned media prepared with Telotristat 1 μM plus PEA 300 μM)	effect on C-Media induced decrease in anti-CD3 mediated PBMCs activation (IFN-γ) (human PBMCs)	effect on PEA-induced TPH1 activity (TPH1; Telotristat 1 μM plus PEA 300 μM)	effect on C-Media decrease in Trp level and concomitant increase of 5HTP, 5HT, 5HTP/Trp and 5HT/Trp ratios (TPH1)
Cc1ccn(-c2cc(Cl)ccc2[C@@H](Oc2cc(-c3ccc(C[C@H](N)C(=O)O)cc3)nc(N)n2)C(F)(F)F)n1 [Telotristat]	alleviated	limited	able to limit PEA-induced TPH1 activity	largely limited
NCCc1ccccc1 [PEA, Phenethylamine]	–	increased	–	further increased
